Laboratory results as given in patent publication US12466838B2, “Crystalline form of a multi-tyrosine kinase inhibitor, method of preparation, and use thereof” (Mirati Therapeutics, Inc., priority 2019, dated 2025).
Entries after “also recorded” stand apart in the source; their conditions may differ.

How the values were obtained:
[1] = system: human xenograft tumor models; conditions: multiple human xenograft tumor models in mice; cited from earlier work
[2] = system: tyrosine kinases, including RET, CBL, CHR4q12, DDR and Trk; conditions: cited from earlier work
[3] = Drying experiments (non-solvent based), solid form by XRPD; assay type: physicochemical; conditions: Vacuum oven drying, ~40° C., 2.5
Experimental: (§1) XRPD patterns were collected with a PANalytical X'Pert PRO MPD diffractometer using an incident beam of Cu radiation produced using an Optix long, fine-focus source. An elliptically graded multilayer mirror was used to focus Cu Kα X-ray radiation through the specimen and onto the detector. Prior to the analysis, a silicon specimen (NIST SRM 640d) was analyzed to verify the observed position of the Si (111) peak is consistent with the NIST-certified position. A specimen of the sample was sandwiched between 3-μm-thick films and analyzed in transmission geometry. A beam-stop, short antiscatter extension, and antiscatter knife edge, were used to minimize the background generated by air. Soller slits for the incident and diffracted beams were used to minimize broadening from axial divergence. Diffraction patterns were collected using a scanning position-sensitive detector (X'Celerator) located 240 mm from the specimen and Data Collector software v. 2.2b.
Limited non-solvent based experiments were conducted with materials generated during the stable form screen and included short term vacuum drying at elevated temperature.

[4] = Preliminary physical stability assessment of Form D, XRPD; assay type: physicochemical
Experimental: as §1, with “2.2b. Preliminary physical stability assessment of Form D was performed. […] The XRPD patterns of the stressed materials show no significant peak shifts compared to the untreated samples. The XRPD pattern of Form D obtained from high water activity slurry is consistent with the pattern of the untreated material. However, small shifts of selected peaks were observed, possibly due to hydration.” for “2.2b.”

[5] = Slurry interconversion experiments, solid form by XRPD; assay type: physicochemical; conditions: slurry of Forms C, D, and H in ethyl acetate
Experimental: as §1
To investigate the relationship between selected materials produced during screening, limited slurry interconversion experiments were conducted. The experiments were performed by slurring seeds of solids of interest at ambient temperature in two different solvent systems. All materials were vacuum dried prior to the slurry (˜40° C., ˜2.5 hours). Solvent conditions were selected to achieve sufficient solubility of materials tested. […]

Structure (SMILES): COCCNCc1ccc(-c2cc3nccc(Oc4ccc(NC(=O)C5(C(=O)Nc6ccc(F)cc6)CC5)cc4F)c3s2)nc1 [Compound 1, N-(3-fluoro-4-((2-(5-(((2-methoxyethyl)amino)methyl)pyridin-2-yl)thieno[3,2-b]pyridin-7-yl)oxy)phenyl)-N-(4-fluorophenyl)cyclopropane-1,1-dicarboxamide]
- tumor regression [1]: shows tumor regression
- inhibition of a closely related spectrum of tyrosine kinases [2]: potent inhibition

Structure (SMILES): COCCNCc1ccc(-c2cc3nccc(Oc4ccc(NC(=O)C5(C(=O)Nc6ccc(F)cc6)CC5)cc4F)c3s2)nc1 [Form C, N-(3-fluoro-4-((2-(5-(((2-methoxyethyl)amino)methyl)pyridin-2-yl)thieno[3,2-b]pyridin-7-yl)oxy)phenyl)-N-(4-fluorophenyl)cyclopropane-1,1-dicarboxamide]
- XRPD Results after drying [3]: Form C

Structure (SMILES): COCCNCc1ccc(-c2cc3nccc(Oc4ccc(NC(=O)C5(C(=O)Nc6ccc(F)cc6)CC5)cc4F)c3s2)nc1 [Form D]
- XRPD Results (physical stability) ([4]; Acetone/water (40/60), slurry, RT): Consistent with Form D, slight peak shifts
- XRPD Results (physical stability) ([4]; EtOH/water (40/60), slurry, RT): Consistent with Form D, slight peak shifts
- XRPD Results (physical stability) ([4]; Water, slurry, RT): Consistent with Form D, slight peak shifts
- XRPD Results (physical stability) ([4]; ~43% RH/RT): remained unchanged; also recorded: Consistent with Form D, no significant shifts of peaks
- XRPD Results (physical stability) ([4]; ~75% RH/RT): remained unchanged; also recorded: Consistent with Form D, no significant shifts of peaks
- XRPD Results after drying [3]: remained unchanged; also recorded: Form D

Structure (SMILES): COCCNCc1ccc(-c2cc3nccc(Oc4ccc(NC(=O)C5(C(=O)Nc6ccc(F)cc6)CC5)cc4F)c3s2)nc1 [Form H, N-(3-fluoro-4-((2-(5-(((2-methoxyethyl)amino)methyl)pyridin-2-yl)thieno[3,2-b]pyridin-7-yl)oxy)phenyl)-N-(4-fluorophenyl)cyclopropane-1,1-dicarboxamide]
- relative thermodynamic stability among Forms C, D and H [5]: least thermodynamically stable
- XRPD Results after drying [3]: Form H
